The structures appear in SMILES notation.

Usually melting point stands for the temperature, or range, at which the solid turns liquid.

`COc1ccc(Oc2ccc3c(c2)OCC(=O)N3)cc1` [Example 1, 7-(4-Methoxyphenoxy)-2H-1,4-benzoxazin-3(4H)-one] registered a melting point of 163 to 164 °C.

In turn, `O=C1COc2cc(Oc3ccc(O)cc3)ccc2N1` [Example 2, 7-(4-Hydroxyphenoxy)-2H-1,4-benzoxazin-3(4H)-one] displayed a melting point of 250 to 251 °C.

The compound `Nc1ccc(Sc2ccc3c(c2)OCC(=O)N3)cc1` [Example 3, 7-[(4-Aminophenyl)sulfanyl]-2H-1,4-benzoxazin-3(4H)-one] gave a melting point of 232 to 234 °C.

In the case of `Nc1ccccc1Sc1ccc2c(c1)OCC(=O)N2` [Example 4, 7-[(2-Aminophenyl)sulfanyl]-2H-1,4-benzoxazin-3(4H)-one], the melting point was 204 to 205 °C.

Regarding `Nc1cccc(Sc2ccc3c(c2)OCC(=O)N3)c1` [Example 5, 7-[(3-Aminophenyl)sulfanyl]-2H-1,4-benzoxazine-3(4H)-one], the melting point lay in the range of 181 to 182 °C.

`O=C1COc2cc(Sc3ccc(O)cc3)ccc2N1` [Example 6, 7-[(4-Hydroxyphenyl)sulfanyl]-2H-1,4-benzoxazin-3(4H)-one] showed a melting point of 224 to 225 °C.

`COc1ccc(Sc2ccc3c(c2)OCC(=O)N3)cc1OC` [Example 7, 7-[(3,4-Dimethoxyphenyl)sulfanyl]-2H-1,4-benzoxazin-3(4H)-one] returned a melting point of 170 to 171 °C.

For the compound `O=C1COc2cc(Sc3ccc(O)c(O)c3)ccc2N1` [Example 8, 7-[(3,4-Dihydroxyphenyl)sulfanyl]-2H-1,4-benzoxazin-3(4H)-one], the melting point is 236 to 238 °C.

The compound `O=C1COc2cc(SCc3ccccc3)ccc2N1` [Example 9, 7-Benzylsulfanyl-2H-1,4-benzoxazin-3(4H)-one] came in with a melting point of 154 to 155 °C.

On to `O=C1COc2cc(SCc3ccc(O)cc3)ccc2N1` [Example 13, 7-(4-Hydroxybenzylsulfanyl)-2H-1,4-benzoxazin-3(4H)-one], for which the melting point lay within 207 to 209 °C.

Take `COc1ccc(Nc2ccc3c(c2)OCC(=O)N3)cc1` [Example 14, 7-(4-Methoxyanilino)-2H-1,4-benzoxazin-3(4H)-one]: the melting point lay within 174 to 175 °C.

`O=C1COc2cc(Nc3ccc(O)cc3)ccc2N1` [Example 15, 7-(4-Hydroxyanilino)-2H-1,4-benzoxazin-3(4H)-one] returned a melting point of 270 to 275 °C.

For the compound `Nc1cccc(Oc2ccc3c(c2)OCC(=O)N3)c1` [Example 17, 7-(3-Aminophenoxy)-2H-1,4-benzoxazin-3(4H)-one], the melting point lay in the range of 209 to 210 °C.

For `Nc1ccccc1Oc1ccc2c(c1)OCC(=O)N2` [Example 18, 7-(2-Aminophenoxy)-2H-1,4-benzoxazin-3(4H)-one], the melting point was in the range of 149 to 150 °C.

As for `CC(=O)Nc1ccc(Oc2ccc3c(c2)OCC(=O)N3)cc1` [Example 19, 7-(4-Acetylaminophenoxy)-2H-1,4-benzoxazin-3(4H)-one], the melting point was in the range of 230 to 232 °C.

The values are drawn from patent publication US6951855B2, “Benzoxazinone derivatives for use in the treatment of angiogenesis” (AstraZeneca AB, priority 2001, dated 2005).
